Patent publication US20230151037A1, “GPR40 AGONISTS” (Kallyope, Inc., priority 2020, published 2023)

Assays:
human GPR40 = biological target: T1, human GPR40 (Homo sapiens, UniProt O14842); assay: Inositol phosphate accumulation assay (IP1 HTRF) in CHO-K1 cells expressing human GPR40; type: cell-based; settings: 90 min
T1 construct: host or cells: CHO-K1
Experimental: CHO-K1 cells expressing human GPR40 were purchased from DiscoverX (95-1005C2). HEK293 cells expressing mouse FFAR1 were prepared using a mouse FFAR1 carrying plasmid purchased from OriGene Technologies (MR222997). The cells were transfected using Lipofectamine 2000 using manufacturer instructions and stable cell line was established from a single cell using geneticine selection. Assay ready frozen (ARF) cells were prepared and used throughout the study.
The assay was performed in a 384-well plate format using IP1 assay kit from Cis-Bio. ARF cells expressing FFAR1 (mouse and human) were thawed, washed and then plated in the appropriate medium (F12 based medium for CHO hFFAR1 and DMEM based medium for HEK293 mFFAR1-both were supplemented with 10% FBS and penicillin/streptomycin). 20 μL of 3.5×10^5 cells/mL were plated on a Poly D-Lysine coated 384-well white plate. The cells were then incubated for 16 hr at 37° C./5% CO2. After 16 hr the medium was removed and 15 μL of stimulation buffer containing the test compounds was added to the cells. The plates were then incubated for 90 min at 37° C./5% CO2. 5 μL of detection buffer (prepared as described in the IP-one kit) was added to each well and the plates were incubated at RT for 1 hr.
[…] was measured using ClarioSTAR plate reader, calculating the ratio between emissions at 665 nm and 620 nm (HTRF ratio). HTRF ratio for positive (Max) and negative (Min) controls were used to normalize HTRF data and generate values for % activity. EC50 and Max activity values were determined using a standard 4-parameter fit.

[1] = In vivo plasma levels in mice after oral gavage, with unbound exposure from plasma protein binding; settings: male C57BL/6J mice, 30 mg/kg oral gavage; for Exposure (nM) (unbound), unbound exposure in plasma: total exposure x free fraction; for concentration at 2 h / concentration at 5 h: mouse, plasma, read-out: Exposure (nM), total exposure in plasma
Experimental: Male C57BL/6J mice 10-12 weeks old were dosed with test article (30 mg/kg) or vehicle by oral gavage. Animals were euthanized with carbon dioxide at 2 h or 5 h post dose. Blood was collected for measurement of plasma concentrations of test article. Unbound exposure was calculated by multiplying the measured total exposure by the free fraction as assessed from plasma protein binding.
Plasma protein binding to isotonic phosphate buffer (PBS) containing 10% C57 BL/6 mouse plasma was determined using equilibrium dialysis of plasma spiked with test article (2 μM) against a dialysis buffer (100 mM sodium phosphate and 150 mM NaCl). At the end of the dialysis (4 hr), aliquots of the plasma and buffer were processed by protein precipitation for LC-MS/MS analysis to quantitate the test article.
Results for exemplary compounds (total exposure in plasma and unbound exposure in plasma; ratio of EC50 to unbound exposure in plasma) are shown in Table 2.

T1 sequence (O14842 whole entry): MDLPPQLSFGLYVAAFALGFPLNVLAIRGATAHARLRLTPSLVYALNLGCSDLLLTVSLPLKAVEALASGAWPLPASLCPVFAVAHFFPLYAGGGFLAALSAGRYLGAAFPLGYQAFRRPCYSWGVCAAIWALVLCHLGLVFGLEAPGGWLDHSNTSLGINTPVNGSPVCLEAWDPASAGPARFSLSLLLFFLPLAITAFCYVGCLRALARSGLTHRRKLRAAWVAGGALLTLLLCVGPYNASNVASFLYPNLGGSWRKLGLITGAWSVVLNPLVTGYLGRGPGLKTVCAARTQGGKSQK

Row | Structure (SMILES) | EC50 (human GPR40) [nM] | further results
1 | COc1cc(-c2ccc(COc3cccc(C(CP(C)(=O)O)C4CC4)c3)cc2CN(C(C)C)C(C)C)c(F)cn1 (single isomer, unassigned) [Compound 13, (2-cyclopropyl-2-(3-((3-((diisopropylamino)methyl)-4-(5-fluoro-2-methoxypyridin-4-yl)benzyl)oxy)phenyl)ethyl)(methyl)phosphinic acid] | 50 to 250 | Exposure (nM) (unbound), unbound exposure in plasma ([1]; 2 h post-dose): 1.2 nM; concentration at 2 h ([1]; 2 h post-dose): 294 nM
2 | COc1cc(-c2ccc(COc3cccc(C(C4CC4)C(C)P(=O)(O)OC)c3)cc2CN(C(C)C)C(C)C)c(F)cn1 (centres unmarked) [Compound 7, methyl hydrogen (1-cyclopropyl-1-(3-((3-((diisopropylamino)methyl)-4-(5-fluoro-2-methoxypyridin-4-yl)benzyl)oxy)phenyl)propan-2-yl)phosphonate] | > 1000 | 
3 | COc1cc(-c2ccc(COc3cccc(C(CP(=O)(O)O)C4CC4)c3)cc2CN(C(C)C)C(C)C)c(F)cn1 (centres unmarked) [Compound 8, (2-cyclopropyl-2-(3-((3-((diisopropylamino)methyl)-4-(5-fluoro-2-methoxypyridin-4-yl)benzyl)oxy)phenyl)ethyl)phosphonic acid] | > 1000 | 
4 | COc1cc(-c2ccc(OCc3cccc(C(CP(=O)(O)O)C4CC4)c3)cc2CN(C(C)C)C(C)C)c(F)cn1 (centres unmarked) [Compound 9, (2-cyclopropyl-2-(3-((3-((diisopropylamino)methyl)-4-(5-fluoro-2-methoxypyridin-4-yl)phenoxy)methyl)phenyl)ethyl)phosphonic acid] | > 1000 | 
5 | COc1cc(-c2ccc(COc3cccc(C(CP(C)(=O)O)C4CC4)c3)c(CN(C(C)C)C(C)C)c2)c(F)cn1 (centres unmarked) [Compound 16, (2-cyclopropyl-2-(3-((2-((diisopropylamino)methyl)-4-(5-fluoro-2-methoxypyridin-4-yl)benzyl)oxy)phenyl)ethyl)(methyl)phosphinic acid] | > 1000 | 
6 | COc1cc(-c2ccc(OCc3cccc(C(CP(C)(=O)O)C4CC4)c3)cc2CN(C(C)C)C(C)C)c(F)cn1 (centres unmarked) [Compound 21, (2-cyclopropyl-2-(3-((3-((diisopropylamino)methyl)-4-(5-fluoro-2-methoxypyridin-4-yl)phenoxy)methyl)phenyl)ethyl)(methyl)phosphinic acid] | 50 to 250 | 
7 | COc1cc(-c2ccc(COc3cccc(C(C4CC4)C(C)(C)P(=O)(O)O)c3)cc2CN(C(C)C)C(C)C)c(F)cn1 (centres unmarked) [Compound 22, (1-cyclopropyl-1-(3-((3-((diisopropylamino)methyl)-4-(5-fluoro-2-methoxypyridin-4-yl)benzyl)oxy)phenyl)-2-methylpropan-2-yl)phosphonic acid] | > 1000 | 
8 | CCC(C[PH](=O)O)c1cccc(OCc2ccc(-c3cc(OC)ncc3F)c(CN(C(C)C)C(C)C)c2)c1 (centres unmarked) [Compound 23, (2-(3-((3-((diisopropylamino)methyl)-4-(5-fluoro-2-methoxypyridin-4-yl)benzyl)oxy)phenyl)butyl)phosphinic acid] | > 1000 | 
9 | COc1ccc(F)c(-c2ccc(COc3cccc([C@@H](CP(C)(=O)O)C4CC4)c3)cc2[C@@H](OC)C(C)(C)C)c1 [Compound 24, ((S)-2-cyclopropyl-2-(3-((2′-fluoro-5′-methoxy-2-((S)-1-methoxy-2,2-dimethylpropyl)-[1,1′-biphenyl]-4-yl)methoxy)phenyl)ethyl)(methyl)phosphinic acid] | ≤ 50 | Exposure (nM) (unbound), unbound exposure in plasma ([1]; 5 h post-dose): 0.03 nM; concentration at 5 h ([1]; 5 h post-dose): 145 nM
10 | COc1cc(-c2ccc(COc3cccc([C@@H](CP(C)(=O)O)C4CC4)c3)cc2[C@@H](OC)C(C)(C)C)c(F)cn1 [Compound 25, ((S)-2-cyclopropyl-2-(3-((4-(5-fluoro-2-methoxypyridin-4-yl)-3-((S)-1-methoxy-2,2-dimethylpropyl)benzyl)oxy)phenyl)ethyl)(methyl)phosphinic acid] | ≤ 50 | Exposure (nM) (unbound), unbound exposure in plasma ([1]; 2 h post-dose): 1.1 nM; concentration at 2 h ([1]; 2 h post-dose): 1840 nM
11 | CO[C@H](c1cc(COc2cccc([C@@H](CP(C)(=O)O)C3CC3)c2)ccc1-c1cc(O)ccc1F)C(C)(C)C [Compound 26, ((S)-2-cyclopropyl-2-(3-((2′-fluoro-5′-hydroxy-2-((S)-1-methoxy-2,2-dimethylpropyl)-[1,1′-biphenyl]-4-yl)methoxy)phenyl)ethyl)(methyl)phosphinic acid] | ≤ 50 | 
12 | COc1ccc(F)c(-c2ccc(COc3cc([C@@H](CP(C)(=O)O)C4CC4)ccn3)cc2[C@@H](OC)C(C)(C)C)c1 [Compound 27, ((S)-2-cyclopropyl-2-(2-((2′-fluoro-5′-methoxy-2-((S)-1-methoxy-2,2-dimethylpropyl)-[1,1′-biphenyl]-4-yl)methoxy)pyridin-4-yl)ethyl)(methyl)phosphinic acid] | ≤ 50 | 
13 | COc1cc(-c2ccc(COc3cc([C@@H](CP(C)(=O)O)C4CC4)ccn3)cc2[C@@H](OC)C(C)(C)C)c(F)cn1 [Compound 28, ((S)-2-cyclopropyl-2-(2-((4-(5-fluoro-2-methoxypyridin-4-yl)-3-((S)-1-methoxy-2,2-dimethylpropyl)benzyl)oxy)pyridin-4-yl)ethyl)(methyl)phosphinic acid] | ≤ 50 | 
14 | COc1cccc(-c2ccc(COc3cccc([C@@H](CP(C)(=O)O)C4CC4)c3)cc2[C@@H](OC)C(C)(C)C)c1 [Compound 29, ((S)-2-cyclopropyl-2-(3-((3′-methoxy-2-((S)-1-methoxy-2,2-dimethylpropyl)-[1,1′-biphenyl]-4-yl)methoxy)phenyl)ethyl)(methyl)phosphinic acid] | ≤ 50 | Exposure (nM) (unbound), unbound exposure in plasma ([1]; 5 h post-dose): 0.06 nM; concentration at 5 h ([1]; 5 h post-dose): 140 nM
15 | COc1cccc(-c2ccc(COc3cc([C@@H](CP(C)(=O)O)C4CC4)ccn3)cc2[C@@H](OC)C(C)(C)C)c1 [Compound 30, ((S)-2-cyclopropyl-2-(2-((3′-methoxy-2-((S)-1-methoxy-2,2-dimethylpropyl)-[1,1′-biphenyl]-4-yl)methoxy)pyridin-4-yl)ethyl)(methyl)phosphinic acid] | ≤ 50 | 
16 | CO[C@H](c1cc(COc2cc([C@@H](CP(C)(=O)O)C3CC3)ccn2)ccc1-c1cc(O)ccc1F)C(C)(C)C [Compound 31, ((S)-2-cyclopropyl-2-(2-((2′-fluoro-5′-hydroxy-2-((S)-1-methoxy-2,2-dimethylpropyl)-[1,1′-biphenyl]-4-yl)methoxy)pyridin-4-yl)ethyl)(methyl)phosphinic acid] | ≤ 50 | 
17 | COc1cc(-c2ccc(COc3cccc(C(C)CP(C)(=O)O)c3)cc2[C@@H](OC)C(C)(C)C)c(F)cn1 (stereo partly drawn) [Compound 34, (2-(3-((4-(5-fluoro-2-methoxypyridin-4-yl)-3-((S)-1-methoxy-2,2-dimethylpropyl)benzyl)oxy)phenyl)propyl)(methyl)phosphinic acid] | ≤ 50 | 
18 | COc1cc(-c2ccc(COc3cccc(C[C@@H](C)P(C)(=O)O)c3)cc2[C@@H](OC)C(C)(C)C)c(F)cn1 [Compound 41, ((R)-1-(3-((4-(5-fluoro-2-methoxypyridin-4-yl)-3-((S)-1-methoxy-2,2-dimethylpropyl)benzyl)oxy)phenyl)propan-2-yl)(methyl)phosphinic acid] | ≤ 50 | 
